For this test, the system named is PKC. Description: PKC activity in mononuclear cells of STZ-induced diabetic rats after treatment. The conditions noted are these: male Sprague-Dawley rats, STZ-induced diabetes (56% increase vs control), insulin pellet inserted subcutaneously, after 2 weeks. The format is in vivo, rat. On the procedure: Monocytes of rats and also human control subjects and patients with diabetes were isolated from blood with anticoagulant of sodium citrate. The blood sample was put onto the same volume of Histopaque-1077 (Sigma) and centrifuged at 400×g for 30 minutes at room temperature. The layer containing mononuclear cells was transferred to a new tube and washed with phosphate-buffered saline (PBS). After centrifugation at 400×g for 10 minutes, cell pellet was suspended with a solution of 144 mM NH4Cl and 17 mM Tris-HCl, pH 7.65 to lyse the contaminated red blood cells. Mononuclear cells were washed with PBS and used in this study.
Mononuclear cells of human and rats and retina of rats were suspended in a buffer containing 137 mM NaCl, 4.3 mM KCl, […] Na2HPO4, 0.4 mM KH2PO4, 5.5 mM D-Glucose, 10 mM MgCl2, 1 mM CaCl2, 25 mM β-glycerophosphate, and 20 mM HEPES, pH 7.2. […] The paper was put into a scientillation vial and radioactivity of ^32p was assayed by scientillation counter. The paper was put into a scintillation vial and radioactivity of ^32p incorporated into substrate peptide per minute per mg of protein, and calculated by the difference between the activity in the presence of substrate peptide and the activity in the absence of the peptide.
Male Sprague-Dawley rats at the age of 6 weeks were used in this study. […] PKC activity in these tissues was measured as described below.

Consider insulin, for which the “PKC activity in rat mononuclear cells” value is “restored to the level of control rats”.

For the origin of these results see patent US6811993B2, “Diagnostic and screening methods based on monocyte PKC activity” (Joslin Diabetes Center, Inc., priority 2000, dated 2004).
